In US7713994B2 (Wyeth LLC, priority 2005, dated 2010):
Like-named read-outs stand apart in the source and are kept apart here.

Key:
cyclin E/CDK2 enzyme = biological target: T1, cyclin E/CDK2 enzyme (Homo sapiens, UniProt P24941); assay: CDK2 ELISA kinase assay (phospho-Rb ser 795 detection); type: biochemical
T1 construct: made in house; host or cells: Sf9 insect cells, recombinant baculovirus
Procedure, shortened: (§1)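 GST-Rb C-terminal fragment coated on plates; partially purified Sf9-expressed cyclin D1/CDK4, cyclin E/CDK2 or cyclin B/CDK1 with 200 μM ATP, pH 7.5 HEPES/MgCl2 buffer, 1 h at 30 °C; screen compound final 10 μg/ml. Phospho-Rb Ser795 detected by antibody ELISA (TMB, A450); % of control, IC50 from background-subtracted inhibition curves.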

MCF-7 = assay: Cytotoxicity assay (SRB), MCF-7; type: cell-based; settings: Homo sapiens, MCF7, 72 h, read-out: In Vitro Cellular Activity IC50 MCF-7
Procedure, shortened: (§2)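 Cells seeded overnight at 37 °C, 7% CO2 (BT474 12000, HCT-116 4000, LoVo and MCF-7 6000 cells/well) in RPMI 1640 with 5% FBS, then exposed to compound dilutions for 3 days (BT474 6 days). Survival versus untreated controls by TCA fixation and SRB staining, absorbance 540 nm.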

BT474 = assay: Cytotoxicity assay (SRB), BT474; type: cell-based; settings: Homo sapiens, BT-474, 144 h, read-out: In Vitro Cellular Activity IC50 BT474
Procedure, shortened: as §2

HCT-116 = assay: Cytotoxicity assay (SRB), HCT-116; type: cell-based; settings: Homo sapiens, HCT-116, 72 h, read-out: In Vitro Cellular Activity IC50 HCT116
Procedure, shortened: as §2

cyclin B/CDK1 enzyme = biological target: T2, cyclin B/CDK1 enzyme (Homo sapiens, UniProt P06493); assay: CDK1 ELISA kinase assay (phospho-Rb ser 795 detection); type: biochemical
T2 construct: purchased New England BioLabs; host or cells: Sf9 insect cells, recombinant baculovirus
T2 sequence (P06493 whole entry): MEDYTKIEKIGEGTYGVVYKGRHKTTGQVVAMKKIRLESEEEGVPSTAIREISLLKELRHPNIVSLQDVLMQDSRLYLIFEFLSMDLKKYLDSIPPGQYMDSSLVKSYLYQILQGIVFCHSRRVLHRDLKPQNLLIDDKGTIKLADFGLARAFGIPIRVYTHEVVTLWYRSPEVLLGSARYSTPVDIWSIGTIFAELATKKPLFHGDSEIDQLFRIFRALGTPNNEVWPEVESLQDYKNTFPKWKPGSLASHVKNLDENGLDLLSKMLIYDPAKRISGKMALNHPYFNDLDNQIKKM
T2 sequence (P14635 whole entry partner): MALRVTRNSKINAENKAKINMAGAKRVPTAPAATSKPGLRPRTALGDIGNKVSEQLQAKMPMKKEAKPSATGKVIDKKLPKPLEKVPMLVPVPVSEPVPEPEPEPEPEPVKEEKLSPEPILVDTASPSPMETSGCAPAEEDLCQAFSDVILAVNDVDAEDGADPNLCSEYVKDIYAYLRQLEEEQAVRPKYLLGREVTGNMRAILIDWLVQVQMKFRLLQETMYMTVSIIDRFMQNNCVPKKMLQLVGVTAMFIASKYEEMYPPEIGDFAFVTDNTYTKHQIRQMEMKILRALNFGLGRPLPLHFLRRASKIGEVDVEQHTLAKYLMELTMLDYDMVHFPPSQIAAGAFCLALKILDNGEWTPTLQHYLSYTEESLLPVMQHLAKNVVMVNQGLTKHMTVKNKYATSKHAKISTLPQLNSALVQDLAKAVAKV
Procedure, shortened: as §1

cyclin D1/cdk 4 enzyme = biological target: T3, cyclin D1/cdk 4 enzyme (Homo sapiens, UniProt P11802); assay: CDK4 ELISA kinase assay (phospho-Rb ser 795 detection); type: biochemical
T3 construct: made in house; host or cells: Sf9 insect cells, recombinant baculovirus
T3 sequence (P11802 whole entry, species assumed): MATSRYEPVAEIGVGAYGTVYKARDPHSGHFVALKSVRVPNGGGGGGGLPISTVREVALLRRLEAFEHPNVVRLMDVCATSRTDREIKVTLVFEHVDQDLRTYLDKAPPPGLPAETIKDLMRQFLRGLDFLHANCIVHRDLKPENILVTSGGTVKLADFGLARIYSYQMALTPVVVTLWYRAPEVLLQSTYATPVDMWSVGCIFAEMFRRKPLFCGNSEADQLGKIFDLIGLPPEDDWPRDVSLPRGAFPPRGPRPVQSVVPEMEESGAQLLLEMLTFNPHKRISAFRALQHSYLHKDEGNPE
T3 sequence (P24385 whole entry partner, species assumed): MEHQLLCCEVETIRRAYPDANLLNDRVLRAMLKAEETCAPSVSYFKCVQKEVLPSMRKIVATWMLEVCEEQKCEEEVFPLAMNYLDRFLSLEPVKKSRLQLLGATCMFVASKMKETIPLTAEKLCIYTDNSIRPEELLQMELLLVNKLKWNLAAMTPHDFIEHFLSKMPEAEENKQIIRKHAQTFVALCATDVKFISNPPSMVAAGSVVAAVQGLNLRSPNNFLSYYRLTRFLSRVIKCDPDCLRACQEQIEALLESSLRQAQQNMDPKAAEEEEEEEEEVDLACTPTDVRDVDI
Procedure, shortened: as §1

LoVo = assay: Cytotoxicity assay (SRB), LoVo; type: cell-based; settings: Homo sapiens, LoVo, 72 h, read-out: In Vitro Cellular Activity IC50 LOVO
Procedure, shortened: as §2

[1] = In Vitro Enzyme Assays, read-out: CDK2 IC50
[2] = In Vitro Enzyme Assays, read-out: CDK1 IC50
[3] = In Vitro Enzyme Assays, 200 μM ATP, read-out: CDK4 IC50

Row | Structure (SMILES) | IC50 (cyclin E/CDK2 enzyme; [1]) [µM] | IC50 (MCF-7; MCF-7 cells, SRB, three days) [µM] | IC50 (BT474; BT474 cells, SRB, 6 days) [µM] | IC50 (HCT-116; HCT116 cells, SRB, three days) [µM] | melting point | IC50 (cyclin B/CDK1 enzyme; [2]) [µM] | IC50 (cyclin D1/cdk 4 enzyme; [3]) [µM] | IC50 (LoVo; LoVo cells, SRB, three days) [µM] | IC50 (MCF-7) [µM] | IC50 (BT474) [µM] | IC50 (HCT-116) [µM] | IC50 (LoVo) [µM] | IC50 (cyclin E/CDK2 enzyme; In Vitro Enzyme Assay, cyclin E/CDK2, read-out: CDK2 IC50) [µM] | IC50 (MCF-7; MCF-7 cells, 3 days, SRB) [µM] | IC50 (BT474; BT474 cells, 6 days, SRB) [µM] | IC50 (HCT-116; HCT116 cells, 3 days, SRB) [µM] | IC50 (cyclin B/CDK1 enzyme; In Vitro Enzyme Assay, cyclin B/CDK1, read-out: CDK1 IC50) [µM] | IC50 (cyclin D1/cdk 4 enzyme; In Vitro Enzyme Assay, cyclin D1/cdk 4, read-out: CDK4 IC50) [µM] | IC50 (LoVo; LoVo cells, 3 days, SRB) [µM]
1 | Cc1cc(N/C=C2\C(=O)NC(=O)c3ccc(-c4ccoc4)cc32)cnc1N1C[C@@H](C)N[C@@H](C)C1 [Example 355, (4Z)-4-[({6-[(3R,5S)-3,5-Dimethylpiperazin-1-yl]-5-methylpyridin-3-yl}amino)methylene]-6-(3-furyl)isoquinoline-1,3(2H,4H)-dione] | > 50 | 1.4 | 1.7 | 1.2 | 195 to 196 °C | > 50 | 0.36 | 2 |  |  |  |  |  |  |  |  |  |  | 
2 | CCCOc1ccc(CNC=C2C(=O)NC(=O)c3ccc(-n4cccc4)cc32)cc1O [Example 278, 4-[(3-Hydroxy-4-propoxy-benzylamino)-methylene]-6-pyrrol-1-yl-4H-isoquinoline-1,3-dione] | > 50 | 6.3 | 5 | 2.9 | 215 to 216 °C (dec.) | > 50 | 0.03 | 4.7 |  |  |  |  |  |  |  |  |  |  | 
3 | CCCOc1ccc(CN/C=C2\C(=O)NC(=O)c3cc(OC)c(Br)cc32)cc1O [Example 246, 6-Bromo-4-[(3-hydroxy-4-propoxy-benzylamino)-methylene]-7-methoxy-4H-isoquinoline-1,3-dione] | > 50 | > 50 | 2 | 22 | 212 to 214 °C (dec.) | > 50 | 28.3 | 37 |  |  |  |  |  |  |  |  |  |  | 
4 | NS(=O)(=O)c1ccc(CN/C=C2\C(=O)NC(=O)c3ccc(Br)cc32)cc1 [Example 56, 4-({[(Z)-(6-Bromo-1,3-dioxo-2,3-dihydroisoquinolin-4(1H)-ylidene)methyl]amino}methyl)benzenesulfonamide] | 1.3 | 27 | 23 | 28 | 273 to 274 °C | 16.2 | 0.48 | 30 |  |  |  |  |  |  |  |  |  |  | 
5 | O=C1NC(=O)c2ccc(-c3ccsc3)cc2/C1=C/Nc1ccc(N2CCC(N3CCCC3)CC2)nc1 [Example 408] | > 50 |  |  |  | 203 to 204 °C | > 50 | 0.12 |  | 5.1 | 2.4 | 2.5 | 2.6 |  |  |  |  |  |  | 
6 | O=Cc1sccc1-c1ccc2c(c1)/C(=C/Nc1ccc(CN3CCCCC3)cc1)C(=O)NC2=O [Example 97] | 6.7 | 2.8 | 3.1 | 1.5 | 224 to 225 °C | > 50 | 1 | 1.9 |  |  |  |  |  |  |  |  |  |  | 
7 | O=C1NC(=O)c2ccc(I)cc2/C1=C/Nc1ccc(CN2CCC(CCO)CC2)cc1 [Example 480, (4Z)-4-{[(4-{[4-(2-Hydroxyethyl)piperidin-1-yl]methyl}phenyl)amino]methylene}-6-iodoisoquinoline-1,3(2H,4H)-dione] |  |  |  |  | 223 to 224 °C |  |  |  |  |  |  |  | 26.5 | 1.6 | 1 | 3.3 | > 50 | 0.21 | 4.5
8 | CC(C)Oc1ccc(CN/C=C2\C(=O)NC(=O)c3ccc(Br)cc32)cc1O [Example 137, (4Z)-6-Bromo-4-{[(3-hydroxy-4-isopropoxybenzyl)amino]methylene}isoquinoline-1,3(2H,4H)-dione] | 33.9 | 17 | 3.3 | 4.4 | 212 to 213 °C | > 50 | 0.69 | 5.8 |  |  |  |  |  |  |  |  |  |  | 
9 | CN(C)C/C=C/C(=O)Nc1ccc(CN/C=C2\C(=O)NC(=O)c3ccc(I)cc32)cc1O [Example 359, (2E)-4-(Dimethylamino)-N-[2-hydroxy-4-({[(Z)-(6-iodo-1,3-dioxo-2,3-dihydroisoquinolin-4(1H)-ylidene)methyl]amino}methyl)phenyl]but-2-enamide] | 0.26 | 0.4 | 0.12 | 0.23 | 185 to 186 °C | 1.5 | 0.02 | 0.34 |  |  |  |  |  |  |  |  |  |  | 
10 | CN1CCC(c2ccc(N/C=C3\C(=O)NC(=O)c4ccc(-c5ccsc5)cc43)cc2)CC1 [Example 327, (4Z)-4-({[4-(1-Methylpiperidin-4-yl)phenyl]amino}methylene)-6-thien-3-ylisoquinoline-1,3(2H,4H)-dione] | > 50 | 2.2 | 2.5 | 1.5 | 217 to 218 °C | > 50 | 0.06 | 2.9 |  |  |  |  |  |  |  |  |  |  | 
11 | O=C1NC(=O)c2ccc(-c3ccc(CN4CCCCC4)cc3)cc2C1=CNc1ccc(CN2CCCCC2)cc1 [Example 125, 6-(4-Piperidin-1-ylmethyl-phenyl)-4-[(4-piperidin-1-ylmethyl-phenylamino)-methylene]-4H-isoquinoline-1,3-dione] | > 50 | 1.8 | 3.9 | 1.2 | 159 to 160 °C | > 50 | 44.4 | 1.1 |  |  |  |  |  |  |  |  |  |  | 
12 | O=C1NC(=O)c2ccc(Br)cc2/C1=C/N1CCN(CCN2CCOCC2)CC1 [Example 105, (4Z)-6-Bromo-4-{[4-(2-morpholin-4-ylethyl)piperazin-1-yl]methylene}isoquinoline-1,3(2H,4H)-dione] | > 50 | > 50 | 36.9 | 42.6 | 156 to 156.5 °C | > 50 | 24.3 | 42.9 |  |  |  |  |  |  |  |  |  |  | 
13 | Nc1ccc(CN/C=C2\C(=O)NC(=O)c3ccc(-c4ccc(F)cc4)cc32)cc1O [Example 134, (4Z)-4-{[(4-Amino-3-hydroxybenzyl)amino]methylene}-6-(4 fluorophenyl)isoquinoline-1,3(2H,4H)-dione] | 13.2 | 12 | 11 | 13 | 227 to 228 °C | > 50 | 0.04 | 11 |  |  |  |  |  |  |  |  |  |  | 
